Reference: patent publication US10227323B2, “Glucosylceramide synthase inhibitors for the treatment of diseases” (BIOMARIN PHARMACEUTICAL INC., priority 2013, dated 2019)

These compounds were tested against T1, GCS (Canis lupus familiaris, UniProt A0A8I3MXG6) (assay: Assay 1: GCS Enzymatic Assay (MDCK cell lysate, C6-NBD-Ceramide, LC/MS)). Details: Table 2; data marked by *.
T1 sequence (A0A8I3MXG6 1-394): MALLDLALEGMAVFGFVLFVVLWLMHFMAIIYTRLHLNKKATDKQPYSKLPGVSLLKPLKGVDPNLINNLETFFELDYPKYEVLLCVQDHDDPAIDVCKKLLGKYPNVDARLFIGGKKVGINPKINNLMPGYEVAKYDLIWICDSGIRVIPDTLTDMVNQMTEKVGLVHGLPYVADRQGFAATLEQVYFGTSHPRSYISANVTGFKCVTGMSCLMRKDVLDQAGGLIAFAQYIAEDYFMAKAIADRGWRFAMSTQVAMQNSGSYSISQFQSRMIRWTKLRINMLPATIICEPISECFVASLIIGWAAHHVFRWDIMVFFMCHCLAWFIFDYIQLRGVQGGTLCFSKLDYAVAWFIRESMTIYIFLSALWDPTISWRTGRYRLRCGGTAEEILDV
Format: biochemical, canine
Summary of the method: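 LC/MS/MS measurement of glucosylceramide and NBD-ceramide after a 1 h, 37 °C reaction with 100 μM UDP-glucose and 10 μM C6-NBD-ceramide gave IC50s or percent inhibition.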

Row | SMILES | % inhibition generated from Assay 1
1 | O=C(N[C@H](CN1CCCC1)[C@H](O)c1ccc2c(c1)OCCO2)C(=O)N1CCN(c2ccc(F)cc2)CC1 [Compound 252, N-((1R,2R)-1-(2,3-dihydrobenzo[b][1,4]dioxin-6-yl)-1-hydroxy-3-(pyrrolidin-1-yl)propan-2-yl)-2-(4-(4-fluorophenyl)piperazin-1-yl)-2-oxoacetamide] | A* (the compound had a % inhibition of a percent inhibition of greater than or equal to about 50%)

Same assay, conditions: Table 2; data without asterisk; read-out: IC50 (nM) generated from Assay 1

Row | SMILES | IC50 [nM]
2 | O=C(N[C@H](CN1CCC1)[C@H](O)c1ccc(OC2CC2)c(Cl)c1)C(=O)c1ccc(-c2ccc(F)cc2)cc1 [Compound 253, N-((1R,2R)-3-(azetidin-1-yl)-1-(3-chloro-4-cyclopropoxyphenyl)-1-hydroxypropan-2-yl)-2-(4′-fluoro-[1,1′-biphenyl]-4-yl)-2-oxoacetamide] | < 50
3 | O=C(N[C@H](CN1CCCC1)[C@H](O)c1cc(F)c2c(c1)OCCO2)C(=O)N1CCN(c2ccc(F)cc2)CC1 [Compound 254, N-((1R,2R)-1-(8-fluoro-2,3-dihydrobenzo[b][1,4]dioxin-6-yl)-1-hydroxy-3-(pyrrolidin-1-yl)propan-2-yl)-2-(4-(4-fluorophenyl)piperazin-1-yl)-2-oxoacetamide] | < 50
4 | CC(C)(C)c1ccc(-c2ccc(C(=O)C(=O)N[C@H](CN3CCCC3)[C@H](O)c3ccc(OC4CC4)c(Cl)c3)cc2)cc1 [Compound 255, 2-(4′-(tert-butyl)-[1,1′-biphenyl]-4-yl)-N-((1R,2R)-1-(3-chloro-4-cyclopropoxyphenyl)-1-hydroxy-3-(pyrrolidin-1-yl)propan-2-yl)-2-oxoacetamide] | < 50
5 | CC(C)n1ncc2ccc(-c3ccc(C(=O)C(=O)N[C@H](CN4CCCC4)[C@H](O)c4ccc(OC5CC5)c(Cl)c4)cc3)cc21 [Compound 256, N-((1R,2R)-1-(3-chloro-4-cyclopropoxyphenyl)-1-hydroxy-3-(pyrrolidin-1-yl)propan-2-yl)-2-(4-(1-isopropyl-1H-indazol-6-yl)phenyl)-2-oxoacetamide] | < 50
6 | CC(C)n1cc2ccc(-c3ccc(C(=O)C(=O)N[C@H](CN4CCCC4)[C@H](O)c4ccc(OC5CC5)c(Cl)c4)cc3)cc2n1 [Compound 257, N-((1R,2R)-1-(3-chloro-4-cyclopropoxyphenyl)-1-hydroxy-3-(pyrrolidin-1-yl)propan-2-yl)-2-(4-(2-isopropyl-2H-indazol-6-yl)phenyl)-2-oxoacetamide] | < 50
7 | O=C(N[C@H](CN1CCCC1)[C@H](O)c1cc(F)c2c(c1)OCCO2)C(=O)c1ccc(-c2ccc(Cl)s2)cc1 [Compound 360, 2-(4-(5-chlorothiophen-2-yl)phenyl)-N-((1R,2R)-1-(8-fluoro-2,3-dihydrobenzo[b][1,4]dioxin-6-yl)-1-hydroxy-3-(pyrrolidin-1-yl)propan-2-yl)-2-oxoacetamide] | < 50
8 | COc1c(F)cc([C@@H](O)[C@@H](CN2CCCC2)NC(=O)C(=O)c2ccc(-c3ccc(F)cc3)cc2)cc1OC(C)C [Compound 361, N-((1R,2R)-1-(3-fluoro-5-isopropoxy-4-methoxyphenyl)-1-hydroxy-3-(pyrrolidin-1-yl)propan-2-yl)-2-(4′-fluoro-[1,1′-biphenyl]-4-yl)-2-oxoacetamide] | 50 to 5000
9 | CC1(C)COc2c(F)cc([C@@H](O)[C@@H](CN3CCCC3)NC(=O)C(=O)c3ccc(-c4ccc(F)cc4)cc3)cc2O1 [Compound 362, N-((1R,2R)-1-(8-fluoro-3,3-dimethyl-2,3-dihydrobenzo[b][1,4]dioxin-6-yl)-1-hydroxy-3-(pyrrolidin-1-yl)propan-2-yl)-2-(4′-fluoro-[1,1′-biphenyl]-4-yl)-2-oxoacetamide] | < 50
10 | O=C(N[C@H](CN1CCCC1)[C@H](O)c1ccc(OC2CC2)c(Cl)c1)C(=O)c1ccc(-c2ccc(Cl)s2)cc1 [Compound 363, N-((1R,2R)-1-(3-chloro-4-cyclopropoxyphenyl)-1-hydroxy-3-(pyrrolidin-1-yl)propan-2-yl)-2-(4-(5-chlorothiophen-2-yl)phenyl)-2-oxoacetamide] | < 50
11 | COc1c(F)cc([C@@H](O)[C@@H](CN2CCCC2)NC(=O)C(=O)c2cc3ccc(Cl)cc3s2)cc1OC(C)C [Compound 364, 2-(6-chlorobenzo[b]thiophen-2-yl)-N-((1R,2R)-1-(3-fluoro-5-isopropoxy-4-methoxyphenyl)-1-hydroxy-3-(pyrrolidin-1-yl)propan-2-yl)-2-oxoacetamide] | 50 to 5000
12 | O=C(N[C@H](CN1CCCC1)[C@H](O)c1ccc(OC2CC2)c(Cl)c1)C(=O)c1cc2ccc(Cl)cc2o1 [Compound 365, N-((1R,2R)-1-(3-chloro-4-cyclopropoxyphenyl)-1-hydroxy-3-(pyrrolidin-1-yl)propan-2-yl)-2-(6-chlorobenzofuran-2-yl)-2-oxoacetamide] | < 50
13 | O=C(N[C@H](CN1CCCC1)[C@H](O)c1cc(F)c2c(c1)OCCO2)C(=O)c1cc2ccc(Cl)cc2o1 [Compound 366, 2-(6-chlorobenzofuran-2-yl)-N-((1R,2R)-1-(8-fluoro-2,3-dihydrobenzo[b][1,4]dioxin-6-yl)-1-hydroxy-3-(pyrrolidin-1-yl)propan-2-yl)-2-oxoacetamide] | < 50
14 | O=C(N[C@H](CN1CCCC1)[C@H](O)c1ccc(OC2CC2)c(Cl)c1)C(=O)c1ccc(N2CCOCC2)cc1 [Compound 368, N-((1R,2R)-1-(3-chloro-4-cyclopropoxyphenyl)-1-hydroxy-3-(pyrrolidin-1-yl)propan-2-yl)-2-(4-morpholinophenyl)-2-oxoacetamide] | < 50
15 | O=C(N[C@H](CN1CCC1)[C@H](O)c1cc(F)c2c(c1)OCCO2)C(=O)c1ccc(N2CCOCC2)cc1 [Compound 369, N-((1R,2R)-3-(azetidin-1-yl)-1-(8-fluoro-2,3-dihydrobenzo[b][1,4]dioxin-6-yl)-1-hydroxypropan-2-yl)-2-(4-morpholinophenyl)-2-oxoacetamide] | < 50
16 | O=C(N[C@H](CN1CCCC1)[C@H](O)c1ccc(OC2CC2)c(Cl)c1)C(=O)c1ccc(-c2ccc(C3CC3)cc2)cc1 [Compound 370, N-((1R,2R)-1-(3-chloro-4-cyclopropoxyphenyl)-1-hydroxy-3-(pyrrolidin-1-yl)propan-2-yl)-2-(4′-cyclopropyl-[1,1′-biphenyl]-4-yl)-2-oxoacetamide] | < 50
17 | O=C(N[C@H](CN1CCCC1)[C@H](O)c1cc(F)c2c(c1)OCCO2)C(=O)c1ccc(-c2ccc(C3CC3)cc2)cc1 [Compound 371, 2-(4′-cyclopropyl-[1,1′-biphenyl]-4-yl)-N-((1R,2R)-1-(8-fluoro-2,3-dihydrobenzo[b][1,4]dioxin-6-yl)-1-hydroxy-3-(pyrrolidin-1-yl)propan-2-yl)-2-oxoacetamide] | < 50
18 | O=C(N[C@H](CN1CCCC1)[C@H](O)c1ccc(OC2CC2)c(Cl)c1)C(=O)c1ccc(C2CCOCC2)cc1 [Compound 372, N-((1R,2R)-1-(3-chloro-4-cyclopropoxyphenyl)-1-hydroxy-3-(pyrrolidin-1-yl)propan-2-yl)-2-oxo-2-(4-(tetrahydro-2H-pyran-4-yl)phenyl)acetamide] | < 50
19 | O=C(N[C@H](CN1CCCC1)[C@H](O)c1cc(F)c2c(c1)OCCO2)C(=O)c1ccc(C2CCOCC2)cc1 [Compound 373, N-((1R,2R)-1-(8-fluoro-2,3-dihydrobenzo[b][1,4]dioxin-6-yl)-1-hydroxy-3-(pyrrolidin-1-yl)propan-2-yl)-2-oxo-2-(4-(tetrahydro-2H-pyran-4-yl)phenyl)acetamide] | < 50
